Measured values from patent publication EP0019589A1, “Tripeptide derivatives and their use in a process for determining enzymes” (Pentapharm A.G., priority 1979, dated 1980).
Non-standard residues stand in square brackets, D forms with d. Residues, ends and D or L forms follow the SMILES beside them. *: point of attachment. Cha = N[C@@H](CC1CCCCC1)C(=O)O; dCha = N[C@H](CC1CCCCC1)C(=O)O; dChg = N[C@@H](C(=O)O)C1CCCCC1; pNA = O=[N+]([O-])c1ccc(N*)cc1; AMC = Cc1cc(=O)oc2cc(N*)ccc12; Pip = O=C(O)[C@@H]1CCCCN1; βNA = c1ccc2cc(N*)ccc2c1

Assays:
Assay type in all cases: biochemical
[1] = target: T1, Humanplasmin (Homo sapiens, UniProt P00747); assay: Cleavage of chromogenic substrate by human plasmin; conditions: 1 CU-Einheit human plasmin, per min; Substratkonzentration 2 x 10^-4 molar
T1 construct: da bei der Aktivierung aus 1 Molekül Plasminogen 1 Molekül Plasmin entsteht
T1 sequence (P00747 581-810 limits assumed): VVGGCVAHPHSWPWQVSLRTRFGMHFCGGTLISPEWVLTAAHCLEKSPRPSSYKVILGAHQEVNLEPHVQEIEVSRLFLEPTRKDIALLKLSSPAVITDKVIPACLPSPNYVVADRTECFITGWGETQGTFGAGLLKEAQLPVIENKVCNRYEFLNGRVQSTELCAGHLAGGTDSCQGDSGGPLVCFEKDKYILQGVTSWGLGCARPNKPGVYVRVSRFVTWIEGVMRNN
T1 sequence (P00747 97-580 partner limits assumed): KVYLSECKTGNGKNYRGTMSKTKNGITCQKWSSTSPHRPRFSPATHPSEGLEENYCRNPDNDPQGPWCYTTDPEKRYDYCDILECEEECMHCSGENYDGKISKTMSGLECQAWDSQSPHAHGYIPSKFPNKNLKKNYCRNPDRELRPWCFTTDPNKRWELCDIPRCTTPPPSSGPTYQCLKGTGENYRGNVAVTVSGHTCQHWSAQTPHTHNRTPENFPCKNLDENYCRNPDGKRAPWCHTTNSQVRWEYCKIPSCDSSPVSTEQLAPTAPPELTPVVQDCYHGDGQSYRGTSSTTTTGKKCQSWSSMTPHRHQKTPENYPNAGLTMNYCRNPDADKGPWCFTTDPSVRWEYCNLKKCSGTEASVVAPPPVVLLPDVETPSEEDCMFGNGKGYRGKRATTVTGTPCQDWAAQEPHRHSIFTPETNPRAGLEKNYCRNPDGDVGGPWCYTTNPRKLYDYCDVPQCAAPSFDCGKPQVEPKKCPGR
Protocol: 3. Bestimmung von Plasmin:
Man mischt 1,7 ml TRIS-Imidazol-Puffer (pH 7,5, Ionenstärke 0,2) bei 37°C mit 0,1 ml einer Lösung von Plasmin in 25%igem Glycerin und inkubiert die Mischung während 1 Min. bei 37°C. Dann gibt man der Mischung 0,2 ml einer wässrigen 2 x 10^-3 molaren Substxatlösung von 37°C zu und durchmischt das Ganze schnell. Man ermittelt dann kontinuierlich die pro Zeiteinheit aus dem Substrat freigesetzte Menge des Spaltproduktes R-NH2. Aus dem pro Min. ermittelten Wert berechnet man dann die Plasminaktivität pro ml Probe in mU nach der folgenden Formel: [formula] • ΔE = pro Min. freigesetzte Menge des Spaltproduktes • V = Totalvolumen des Testansatzes • v = Volumen der Probe • = Extinktionskoeffizient dividiert durch 1000
(§1) Bei der Messung des durch die enzymatische Hydrolyse des Substrates gebildeten Spaltproduktes RrNH2 geht man von der Voraussetzung aus, dass das Spaltprodukt ein UV-Spektrum besitzt, das von demjenigen des Substrates verschieden und in Richtung höherer Wellenlängen verschoben ist. Die Absorption des Substrates bei 405 nm ist praktisch Null. p-Nitroanilin als Spaltprodukt weist ein Absorptionsmaximum bei 380 nm und einen molaren Extinktionskoeffizienten von 13'200 auf. Bei 405 nm ist der Extinktionskoeffizient nur wenig niedriger, d.h. […] Der Grad der enzymatischen Hydrolyse des Substrates, welcher der Menge des abgespaltenen p-Nitroanilins proportional ist, lässt sich durch spektrophotometrische Messung bei 405 nm bestimmen. Auch bei Anwesenheit eines Ueberschusses an Substrat wird die Messung bei 405 nm nicht gestört.
(§2) Bei den Substraten, die als chromogene Gruppe eine 2-Naphthylamino-, 4-Methoxy-2-naphthylamino-, 4-Methyl-cumaryl-(7)-amino- oder 1,3-Di(methoxycarbonyl)-phenyl-(5)-amino-Gruppe enthalten, wird die Menge des Spaltproduktes R-NH2 durch Fluoreszenzspektrophotometrie gemessen. In einem aus Enzym, Puffer und Substrat bestehenden Testsystem misst man kontinuierlich das energieärmere emittierte Licht bei 400-470 nm, nachdem man das gebildete fluoreszierende Spaltprodukt mit energiereicherem Licht erregt hat. Die pro Zeiteinheit gebildete Menge Spaltprodukt ist ein Mass für die vorhandene Enzymaktivität. 1 µMol Spaltprodukt pro Minute entspricht definitionsgemäss 1 Enzym-Einheit, bezogen auf ein gegebenes Substrat.

[2] = target: T2, Submandibularis-Kallikrein (Homo sapiens, UniProt P06870); assay: Cleavage of chromogenic substrate by submandibular (glandular) kallikrein in human sputum; conditions: 1 ml human sputum, per min; Substratkonzentration 2 x 10^-4 molar
T2 construct: Man mischt 0,5 ml Sputum mit 2 ml TRIS-Imidazol-Puffer; from tissue; host or cells: human sputum
T2 sequence (P06870 25-262): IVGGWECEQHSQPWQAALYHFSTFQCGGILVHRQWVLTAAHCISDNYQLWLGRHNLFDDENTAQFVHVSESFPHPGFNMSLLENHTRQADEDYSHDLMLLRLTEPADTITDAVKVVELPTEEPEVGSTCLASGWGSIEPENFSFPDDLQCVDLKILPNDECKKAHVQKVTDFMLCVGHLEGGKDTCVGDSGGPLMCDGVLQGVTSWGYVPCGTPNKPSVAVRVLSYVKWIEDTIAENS
Protocol: 2. Bestimmung des Glandulärkallikreins im Sputum: • Man mischt 0,5 ml Sputum mit 2 ml TRIS-Imidazol-Puffer (Ionenstärke 1,0) und präinkubiert die Mischung 5 Min. bei 37°C. Das Inkubat wird zentrifugiert. In eine Testküvette wird 1,5 ml dest. H2O von 37°C vorgelegt und mit 0,25 ml des Zentrifugats versetzt. Die Komponenten werden gut gemischt. Dann wird 0,2 ml 2 x 10-^3 molare wässrige Substratlösung zugesetzt und gemischt. Dann wird bei 405 nm die Extinktions- änderung kontinuierlich mittels eines Schreibers während 5-10 Min. verfolgt. Aus dem ermittelten Δ OD pro Min. wird mittels der nachstehenden Formel die Kallikreinaktivität pro ml Sputum in mU errechnet: [formula] • F = 5 • V = 1,95 • v = 0,25 • 1 U (Einheit) = Enzymmenge, die während 1 Min. 1 µMol Substrat unter optimalen oder sonst festgelegten Bedingungen in Bezug auf pH, Ionenstärke, Temperatur und Substratkonzentration zu spalten vermag
as §1, with “gestört. […]” for “gestört.”

[3] = target: T3, Humanthrombin (Homo sapiens, UniProt P00734); assay: Cleavage of chromogenic substrate by human NIH thrombin; conditions: 1 NIH-Einheit human thrombin, per min; Substratkonzentration 2 x 10^-4 molar
T3 construct: Humanplasmin und hu-manem NIH-Thrombin
Text: as §1, §2

[4] = target: T4, Urinkallikrein (Homo sapiens, UniProt P06870); assay: Cleavage of chromogenic substrate by urinary kallikrein in human urine; conditions: 1 ml human urine (pooled morning urine of healthy persons), per min; Substratkonzentration 2 x 10^-4 molar
T4 construct: 1 ml Urin und 1 ml TRIS-Imidazol-Puffer mit pH 7,9; from tissue; host or cells: human urine
T4 sequence (P06870 25-262): as above
Protocol: 1. Bestimmung von Urinkallikrein.
1 ml Urin und 1 ml TRIS-Imidazol-Puffer mit pH 7,9 und Ionenstärke 1,0 werden 5 Min. bei 37°C inkubiert undcänn zentrifugiert, um Sedimente zu entfernen.
In einer-Plastikküvette werden 1,4 ml dest. H20 von 37°C und 0,4 ml des Zentrifugats gut gemischt. Zu dieser Mischung gibt man 0,2 ml einer 2 x 10^-3 molaren wässrigen Substratlösung und durchmischt die Komponenten schnell. Dieses Gemisch wird genau 15 Min. bei 37°C inkubiert. Dann wird dem Reaktionsgemisch 0,2 ml Eisessig zugemischt, um die Enzymreaktion zu unterbrechen. Zur Farbmessung verwendet man eine Vergleichsprobe (Blindprobe), die aus den gleichen Komponenten zusammengesetzt ist, wobei jedoch der Eisessig vor Zugabe des Substrates zugesetzt wird, um die Enzymreaktion zu verhindern. Dann wird bei 405 nm photometrisch oder spektrophotometrisch die Menge der gebildeten farbigen Verbindung RNH 2 aus der Differenz zwischen der Blindprobe und der zu bestimmenden Probe ermittelt. Aus dem ermittelten Wert wird die Urinkallikreinaktivität im Urin nach der folgenden Formel berechnet: [formula] • Δ OD = Zunahme der optischen Dichte bei 405 nm während 15 Min. • V = Totalvolumen des Bestimmungsansatzes = 2,2 ml • 1000 = Umrechnungsfaktor zur Umwandlung von U in mU • F = Verdünnungsfaktor des Urins (2) • v = Volumen der Probe = 0,4 ml • ε = Extinktionskoeffizient dividiert durch 1000 = 10,4
Bei der oben beschriebenen Bestimmungsmethode misst man somit die Summe der Aktivitäten von Urinkallikrein und Urokinase. Um die genaue Urinkallikreinaktivität zu erhalten, muss man die Urokinaseaktivität abziehen, welche dadurch bestimmt werden kann, dass man in einem Vergleichsversuch durch Zugabe von 0,075 Einheiten Trypsininhibitor (Trypsininhibitor aus Rinderlunge) pro ml Puffer die Urinkallikreinaktivität vollständig hemmt und nur die Urokinaseaktivität misst.
as §1, §2

| SMILES | Menge des durch 1 CU-Einheit Humanplasmin pro Min. freigesetzten Spaltproduktes R-NH2 in Nanomol (Humanplasmin) [1] [Nanomol] | Menge des durch 1 ml Humansputum pro Min. freigesetzten Spaltproduktes R-NH2 in Nanomol (Submandibularis-Kallikrein) [2] | Menge des durch 1 NIH-Einheit Thrombin pro Min. freigesetzten Spaltproduktes R-NH2 in Nanomol (Humanthrombin) [3] | Menge des durch 1 ml Humanurin pro Min. freigesetzten Spaltproduktes R-NH2 in Nanomol (Urinkallikrein) [4] |
| --- | --- | --- | --- | --- |
| N=C(N)NCCC[C@H](NC(=O)[C@@H]1CCCCN1C(=O)[C@H](N)CC1CCCCC1)C(=O)Nc1ccc([N+](=O)[O-])cc1 [Beispiel 66, 2HBr.H-D-CHA-Pip-Arg-pNA] (H-[dCha]-[Pip]-Arg-pNA) | 228 | 9,8 Nanomol | 114,2 Nanomol | 0,53 Nanomol |
| NCCCC[C@H](NC(=O)[C@@H]1CCCN1C(=O)[C@H](N)C1CCCCC1)C(=O)Nc1ccc([N+](=O)[O-])cc1 [Beispiel 31, 2AcOH.H-D-CHG-Pro-Lys-pNA] (H-[dChg]-Pro-Lys-pNA) | 231 | 1,9 Nanomol | 3,78 Nanomol | 0 Nanomol |
| COC(=O)c1cc(NC(=O)[C@H](CCCCN)NC(=O)[C@H](Cc2ccccc2)NC(=O)[C@H](N)C2CCCCC2)cc(C(=O)OC)c1 [Beispiel 6, 2HBr.H-D-CHG-Phe-Lys-DPA] | 1215 | 24,8 Nanomol |  | 0,72 Nanomol |
| Cc1cc(=O)oc2cc(NC(=O)[C@H](CCCNC(=N)N)NC(=O)[C@H](CC3CCCCC3)NC(=O)[C@H](N)C(C)C)ccc12 [Beispiel 3, 2HBr.H-D-Val-CHA-Arg-MCA] (H-[dV]-[Cha]-Arg-{AMC}) | 430 | 31,2 Nanomol |  | 2,55 Nanomol |
| CC(C)C[C@H](NC(=O)[C@H](N)C(C)C)C(=O)N[C@@H](CCCNC(=N)N)C(=O)Nc1ccc([N+](=O)[O-])cc1 [A, 2HCl.H-D-Val-Leu-Arg-pNA, reference compound] (H-[dV]-Leu-Arg-pNA) | 83 | 12,2 Nanomol |  | 0,90 Nanomol |
| Cc1cc(=O)oc2cc(NC(=O)[C@H](CCCCN)NC(=O)[C@H](Cc3ccccc3)NC(=O)[C@H](N)C3CCCCC3)ccc12 [Beispiel 4, 2HBr.H-D-CHG-Phe-Lys-MCA] (H-[dChg]-Phe-Lys-{AMC}) | 1120 | 15,7 Nanomol |  | 0,60 Nanomol |
| COc1cc(NC(=O)[C@H](CCCNC(=N)N)NC(=O)[C@H](CC2CCCCC2)NC(=O)[C@H](N)C(C)C)cc2ccccc12 [Beispiel 9, 2HBr.H-D-Val-CHA-Arg-4-MeO-2-NA] | 388 | 25,4 Nanomol |  | 2,38 Nanomol |
| COC(=O)c1cc(NC(=O)[C@H](CCCNC(=N)N)NC(=O)[C@H](CC2CCCCC2)NC(=O)[C@H](N)C(C)C)cc(C(=O)OC)c1 [Beispiel 5, 2HBr.H-D-Val-CHA-Arg-DPA] | 408 | 28,5 Nanomol |  | 2,42 Nanomol |
| COc1cc(NC(=O)[C@H](CCCCN)NC(=O)[C@H](Cc2ccccc2)NC(=O)[C@H](N)C2CCCCC2)cc2ccccc12 [Beispiel 10, 2HBr.H-D-CHG-Phe-Lys-4-MeO-2-NA] | 1165 | 14,9 Nanomol |  | 0,61 Nanomol |
| CC(C)C[C@H](NC(=O)[C@H](N)C(C)C)C(=O)N[C@@H](CCCCN)C(=O)Nc1ccc([N+](=O)[O-])cc1 [B, 2HCl.H-D-Val-Leu-Lys-pNA, reference compound] (H-[dV]-Leu-Lys-pNA) | 347 | 5,7 Nanomol |  | 0,30 Nanomol |
| NCCCC[C@H](NC(=O)[C@H](Cc1ccccc1)NC(=O)[C@H](N)C1CCCCC1)C(=O)Nc1ccc([N+](=O)[O-])cc1 [Beispiel 2, 2HBr.H-D-CHG-Phe-Lys-pNA] (H-[dChg]-Phe-Lys-pNA) | 1150 | 25,6 Nanomol |  | 0,80 Nanomol |
| NCCCC[C@H](NC(=O)[C@H](Cc1ccccc1)NC(=O)[C@H](N)C1CCCCC1)C(=O)Nc1ccc2ccccc2c1 [Beispiel 8, 2HBr.H-D-CHG-Phe-Lys-2-NA] (H-[dChg]-Phe-Lys-βNA) | 1180 | 17,6 Nanomol |  | 0,58 Nanomol |
| CC(C)[C@@H](N)C(=O)N[C@@H](CC1CCCCC1)C(=O)N[C@@H](CCCNC(=N)N)C(=O)Nc1ccc2ccccc2c1 [Beispiel 7, 2HBr.H-D-Val-CHA-Arg-2-NA] (H-[dV]-[Cha]-Arg-βNA) | 428 | 31,1 Nanomol |  | 2,55 Nanomol |
